Where two headings read alike, the source gives them in different places. A value given as a limit tells only on which side of the number the result lay.

The test system of series [1] is cytochrome P-450 dependent retinoic acid metabolism in male rat hepatic microsomes. Nature of the series: RA metabolism assay: in vitro inhibition of retinoic acid metabolism by P-450 inhibitors. The conditions noted are these: inhibitor 100 μM, RA 3 μM, male rat hepatic microsomes 0.12 mg/ml, 37°C, 15 min, mean of three determinations, (-) denotes stimulation of RA metabolism.
Method: (§1) Controls (10 μl, DMSO) were also carried with each experiment.
(§2) The assay followed a previously described one [17]: The column was a 10 μm C18 μ Bondapak (3.9× 300mm, Millipore) and the mobile phase was acetonitrile: water: formic acid (75:25:0.05v/v) containing 10 mM ammonium acetate. Flow rate was 1.2 ml.Min^−1. Eluted ^3H compounds were detected on line by a model 970 detector (Reeve) using Hisafe III scintillation fluid. The retention time of ^3H-RA was 10 min and oxidative metabolites of ^3H-RA were detected, eluting samples over 3 to 7 min. Metabolism was determined from the % conversion of RA into its total metabolites based on AUC values.
(§3) Three separate experiments (each with triplicate tubes) were carried out.
(§4) The IC50 for ketoconazole and liarozole were determined for comparative purposes.
(§5) The IC50 was calculated from a plot of percentage inhibition versus log inhibitor concentration using Cricket Graph 1.3.

The test system of series [2] is cytochrome P-450 dependent retinoic acid metabolism. The description is as above. The conditions noted are these: male, rat.
Method: as §1, §2, §3, §4, §5
Series [3] concerns cytochrome P-450 dependent retinoic acid metabolism in male rat hepatic microsomes. The following applies: pH 7.4.
Method: as §1, §2, §3, §4, §5
On the set-up of series [4]: method as in PMID 1328295. The following applies: cleared from the plasma; cited from earlier work.
The next series has as its system mouse embryo. Set-up: method as in PMID 1965892. The conditions noted are these: cited from earlier work.
The mark [5] stands for this setting: rat liver microsomes, pH 7.4, probe 3H-retinoic acid (RA), 3 μM.

With `c1ccc(Cn2ccnc2)cc1` [1-Benzylimidazole], in series [1], the “% Inhibition of retinoic acid metabolism” value turned out to be 7.6%.
For `c1csc(-c2nnco2)c1` [2-(Thiophen-2-yl)-1,3,4-oxadiazole], in series [2] (setting [5]), the inhibition at 15 min, 100 μM came to 0%.
Turning to `Cc1nc2cc(-c3ccccc3)ccc2o1` [2-Methyl-5-phenyl-1,3-benzoxazole], the inhibition at 15 min, 100 μM in series [2] (setting [5]) was 18%.
Same read-out and setting: the value for `Brc1ccc(-c2csnn2)cc1` [4-(4-Bromophenyl)-1,2,3-thiadiazole] was 11.6%.
As to `O=c1cc(O)c2ccccc2o1` [4-Hydroxycoumarin], the “% Inhibition of retinoic acid metabolism” value in series [1] came to 38.50%.
For the compound `Clc1cccc(-c2cnco2)c1` [5-(3-Chlorophenyl)-1,3-oxazole], in series [2] (setting [5]), the inhibition at 15 min, 100 μM was determined as 8.6%.
On the same count and under the same terms, in the case of `Cc1ccc(-c2ncns2)cc1` [5-(4-Methylphenyl)-1,2,4-thiadiazole] it was 4.8%; in that of `COc1ccc2ccc(=O)oc2c1` [7-Methoxycoumarin], 11.7%.
Turning to `CCC1(c2ccc(N)cc2)CCC(=O)NC1=O` (stereo not drawn) [Aminoglutethimide], the inhibition at 15 min, 100 μM in series [2] (setting [5]) came out at 30.8%.
The same measure, in the same setting: the value for `C[C@@H]1[C@H](O)[C@@H](C)/C=C/C=C/C=C/C=C/C=C/C=C/C=C/[C@H](O[C@@H]2O[C@H](C)[C@@H](O)[C@H](N)[C@@H]2O)C[C@@H]2O[C@](O)(C[C@@H](O)C[C@@H](O)[C@H](O)CC[C@@H](O)C[C@@H](O)CC(=O)O[C@H]1C)C[C@H](O)[C@H]2C(=O)O` [Amphotericin] was 6.24%; that for `CC(=O)Oc1ccccc1C(=O)O` [Aspirin] was 5%.
In the case of `C[C@@H](Cc1ccccc1)N(C)Cc1ccccc1` [Benzphetamine], in series [3], the “% Inhibition of retinoic acid metabolism” value turned out to be 46.0%.
On to `c1ccc(-c2ccc(C(c3ccccc3)n3ccnc3)cc2)cc1` (stereo not drawn) [Bifonazole], for which the inhibition at 15 min, 100 μM in series [2] (setting [5]) was 47.5%.
In the case of `CN(C)CCCN1c2ccccc2Sc2ccc(Cl)cc21` [Chlorpromazine], the “% Inhibition of retinoic acid metabolism” value was 85.0% in series [1] and above 50% in series [1] (listed as chlorpromazine). Further, the IC50 at 15 min in series [2] (setting [5]) was 16.9 ± 1.7 µM.
For the compound `CN/C(=N/CCSCc1nc[nH]c1C)NC#N` [Cimetidine], the inhibition at 15 min, 100 μM in series [2] (setting [5]) is 1%.
The same measure, in the same setting: in the case of `Clc1ccccc1C(c1ccccc1)(c1ccccc1)n1ccnc1` [Clotrimazole] it was 34.4%.
Same read-out and setting: in the case of `O=c1ccc2ccccc2o1` [Coumarin] it was 37%.
The same measure, in the same setting: in the case of `O=C(O)c1cc(-c2ccc(F)cc2F)ccc1O` [Diflunisal] it was 2%; in that of `Clc1ccc(COC(Cn2ccnc2)c2ccc(Cl)cc2Cl)cc1` (stereo not drawn) [Econazole], 14%; in that of `COC1=CC(=O)C[C@@H](C)[C@]12Oc1c(Cl)c(OC)cc(OC)c1C2=O` [Griseofulvin], 0%.
As for `NCCc1c[nH]cn1` [Histamine], in series [2] (setting [5]), the inhibition at 15 min, 100 μM stood at 0%.
For the compound `COc1ccc2c(c1)c(CC(=O)O)c(C)n2C(=O)c1ccc(Cl)cc1` [Indomethacin], the inhibition at 15 min, 100 μM in series [2] (setting [5]) was 0%.
In the case of `CCC(C)n1ncn(-c2ccc(N3CCN(c4ccc(OCC5COC(Cn6cncn6)(c6ccc(Cl)cc6Cl)O5)cc4)CC3)cc2)c1=O` (stereo not drawn) [Itraconazole], in series [1], the “% Inhibition of retinoic acid metabolism” value is reported as 68.7%. In series [2] (setting [5]), the midpoint of inhibition, the IC50 at 15 min, lay at 17.4 ± 1 µM and the inhibition at 15 min, 100 μM is above 50%.
For the compound `CC(=O)N1CCN(c2ccc(OCC3COC(Cn4ccnc4)(c4ccc(Cl)cc4Cl)O3)cc2)CC1` (stereo not drawn) [Ketoconazole], in series [2] (setting [5]), it took 13.5 ± 1.3 µM to reach half-maximal inhibition (IC50 at 15 min) and the inhibition at 15 min, 100 μM stood at 87.5%.
The matching figures for `Clc1cccc(C(c2ccc3[nH]cnc3c2)n2ccnc2)c1` (stereo not drawn) [Liarozole]: 4.2 ± 0.1 µM and 89%.
As to `Clc1ccc(COC(Cn2ccnc2)c2ccc(Cl)cc2Cl)c(Cl)c1` (stereo not drawn) [Miconazole], the inhibition at 15 min, 100 μM in series [2] (setting [5]) came to 13.5%.
For `c1ccc(CCNCc2ccccc2)cc1` [N-Benzyl-2-phenylethanamine], the “% Inhibition of retinoic acid metabolism” value in series [1] is recorded as 85.0%; in series [1] (listed as N-benzyl-2-phenylethanamine) it was above 50%. Besides, it took 17.1 ± 3.2 µM to reach half-maximal inhibition in series [2] (pH 7.4) (IC50 at 15 min).
For `O=C(Cn1ccnc1)c1ccc2ccccc2c1` [Nafimidone], the inhibition at 15 min, 100 μM in series [2] (setting [5]) was 12%.
As for `CCC1(c2ccc([N+](=O)[O-])cc2)CCC(=O)NC1=O` (stereo not drawn) [Nitroglutethimide], the “% Inhibition of retinoic acid metabolism” value in series [1] is on record as −1.4%.
On the same count and under the same terms, the value for `C[C@@H]1[C@H](O)[C@@H](C)/C=C/C=C/CC/C=C/C=C/C=C/C=C/C(O[C@H]2O[C@H](C)[C@@H](O)[C@H](N)[C@@H]2O)CC2O[C@](O)(CC(O)C(O)CCC(O)CC(O)CC(O)CC(=O)O[C@H]1C)CC(O)C2C(=O)O` (stereo partly drawn) [Nystatin] was 5.44%.
In the case of `CCC1(c2ccccc2)C(=O)NC(=O)NC1=O` [Phenobarbitone], in series [3], the “% Inhibition of retinoic acid metabolism” value was 0.0%.
`CN1C(=O)CC(c2ccccc2)C1=O` (stereo not drawn) [Phensuximide]: the inhibition at 15 min, 100 μM in series [2] (setting [5]) is 3.5%.
Consider `CCCC(C(=O)OCCN(CC)CC)(c1ccccc1)c1ccccc1` [Proadifen], for which the “% Inhibition of retinoic acid metabolism” value in series [1] is 86.0%; in series [1] (listed as proadifen), above 50%. Moreover, the IC50 at 15 min in series [2] (setting [5]) worked out at 1 ± 0.14 µM.
Consider `CC(=O)C[C@H](c1ccccc1)c1c(O)c2ccccc2oc1=O` [R-Warfarin], for which the “% Inhibition of retinoic acid metabolism” value in series [1] turned out to be 3.0%.
In the case of `CC1=C(/C=C/C(C)=C/C=C/C(C)=C/C(=O)O)C(C)(C)CCC1` [RA, All-trans-retinoic acid], in series [4], the “plasma t ½” value is on record as below 1 h. Further, the “developmental / teratogenic effect” value in the series with mouse embryo (dose of 1 mg/Kg RA, mice) is “no teratogenic effects”; in the series on mouse embryo (dose of 10 mg/Kg body weight of RA, mouse), “developmental abnormalities”. For the same compound, in the series with mouse embryo (dose of 10 mg/Kg body weight of RA), the “increase in the level of RA in mouse embryo limb buds” value is listed as “approximately 50 fold”.
As for `CC(=O)C[C@@H](c1ccccc1)c1c(O)c2ccccc2oc1=O` [S-Warfarin], the “% Inhibition of retinoic acid metabolism” value in series [1] came out at 6.5%.
As for `c1ccc2[nH]c(-c3cscn3)nc2c1` [Thiabendazole], the inhibition at 15 min, 100 μM in series [2] (setting [5]) is -4.31%.
For the compound `O=C(O)/C=C\C(=O)O.S=C(NC1CCCCC1)N1CCC(c2cnc[nH]2)CC1` [Thiopermide maleate], in series [1], the “% Inhibition of retinoic acid metabolism” value came to 3.4%.

In general, inhibition refers to the change of the read-out against control, counted positive when it falls. For orientation: IC50 means the midpoint of a concentration-inhibition curve. Higher therefore signals lower potency.

(Values after PMC3221503, “Study on Cytochrome P-450 Dependent Retinoic Acid Metabolism and its Inhibitors as Potential Agents for Cancer Therapy” (Scientia Pharmaceutica, 2011).)
